Test results: patent US20110312941A1, “1,4-DISUBSTITUTED PIPERIDINES AS VASOPRESSIN RECEPTOR VIA ANTAGONISTS” (VANTIA LIMITED, priority 2009, published 2011)

target: T1, cloned human V1a receptor (Homo sapiens, UniProt P37288); assay: in vitro functional calcium mobilisation assay (FLIPR), antagonist activity, 1321N1 cells, 250 pM AVP; assay type: cell-based; details: functional pKi derived from pIC50 (Equation 1), FLIPR Ca2+ mobilisation, 1321N1 cells expressing cloned human V1a receptor, read-out: Mean fpKi (Human V1a) (converted)
T1 construct: host or cells: human brain astrocytoma 1321N1 cells
Procedure: The primary assay which may be used to determine the ability of the compounds of formula (1) to inhibit the vasopressin V1a receptor is an in vitro functional calcium mobilisation assay (FLIPR) that measures antagonist activity at a cloned human V1a receptor. The assay is described below.
The antagonist activity of compounds of formula (1) were determined in a Calcium (Ca2+) mobilisation assay using whole cells (human brain astrocytoma 1321N1 cells, ex Perkin Elmer) genetically modified to stably express a cloned human V1a receptor. Dose response curves were determined by displacement of a single concentration of agonist (250 pM AVP, ex Sigma) with increasing concentrations of compound. A pIC50 value is determined by non-linear regression to a 4-parameter logistic equation and a functional pKi (fpKi) derived using Equation 1.
where A=agonist single conc, and A50=the agonist EC50.

T1 sequence (P37288 whole entry): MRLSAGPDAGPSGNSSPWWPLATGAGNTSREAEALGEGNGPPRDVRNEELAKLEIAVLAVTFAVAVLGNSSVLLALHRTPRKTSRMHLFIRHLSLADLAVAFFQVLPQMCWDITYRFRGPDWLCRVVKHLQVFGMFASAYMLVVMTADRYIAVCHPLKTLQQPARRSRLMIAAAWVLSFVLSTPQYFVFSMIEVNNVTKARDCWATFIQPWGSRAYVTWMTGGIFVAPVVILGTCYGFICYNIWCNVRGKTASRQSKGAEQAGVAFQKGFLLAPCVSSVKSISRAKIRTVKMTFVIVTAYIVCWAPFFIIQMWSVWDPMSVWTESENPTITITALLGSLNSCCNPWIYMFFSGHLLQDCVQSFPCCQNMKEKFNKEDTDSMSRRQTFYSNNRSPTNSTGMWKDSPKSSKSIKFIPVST

Question: CCc1nc2c([nH]1)-c1cc(Cl)ccc1N(C(=O)C1CCN(c3ccccn3)CC1)CC2 [Example 46] was tested. Which Ki did it give?
Answer: 13.5 nM

Question: CCCc1nc2c([nH]1)-c1cc(Cl)ccc1N(C(=O)C1CCN(c3ccccn3)CC1)CC2 [Example 47] was tested. Which Ki did it give?
Answer: 11.7 nM

Question: With O=C(C1CCN(c2ccccn2)CC1)N1CCc2nc(C3CC3)[nH]c2-c2cc(Cl)ccc21 [Example 48] as the compound, how does the Ki read?
Answer: 10.2 nM

Question: Which Ki does the source give for O=C(C1CCN(c2ccccn2)CC1)N1CCc2nc(C3CCCCC3)[nH]c2-c2cc(Cl)ccc21 [Example 49] here?
Answer: 23.4 nM

Question: Which Ki does the source give for O=C(C1CCN(c2ccccn2)CC1)N1CCc2nc(N3CCCCC3)[nH]c2-c2cc(Cl)ccc21 [Example 50] here?
Answer: 24.5 nM

Question: Which Ki does the source give for CN1CCN(c2nc3c([nH]2)-c2cc(Cl)ccc2N(C(=O)C2CCN(c4ccccn4)CC2)CC3)CC1 [Example 51] here?
Answer: 17.4 nM

Question: For Cc1ccc(N2CCC(C(=O)N3CCc4nc(N5CCN(C)CC5)[nH]c4-c4cc(Cl)ccc43)CC2)nc1 [Example 52], which Ki is on record?
Answer: 1.1 nM

Question: For O=C(C1CCN(c2ccccn2)CC1)N1CCc2nc(-c3ccccc3)[nH]c2-c2cc(Cl)ccc21 [Example 53], which Ki is on record?
Answer: 64.6 nM

Question: For O=C(C1CCN(c2ccccn2)CC1)N1CCc2nc(-c3ccccc3F)[nH]c2-c2cc(Cl)ccc21 [Example 54], which Ki is on record?
Answer: 75.9 nM

Question: How did the Ki turn out when O=C(C1CCN(c2ccccn2)CC1)N1CCc2nc(-c3cccc(F)c3)[nH]c2-c2cc(Cl)ccc21 [Example 55] was run?
Answer: 97.7 nM

Question: Which Ki does the source give for O=C(C1CCN(c2ccccn2)CC1)N1CCc2nc(Cc3ccccc3)[nH]c2-c2cc(Cl)ccc21 [Example 56] here?
Answer: 79.4 nM

Question: With O=C(C1CCN(c2ccccn2)CC1)N1CCc2nc(N3CCOCC3)[nH]c2-c2cc(Cl)ccc21 [Example 57] as the compound, how does the Ki read?
Answer: 2.51 nM

Question: For Cc1ccnc(N2CCC(C(=O)N3CCc4nc(N5CCOCC5)[nH]c4-c4cc(Cl)ccc43)CC2)c1 [Example 58], which Ki is on record?
Answer: 0.646 nM

Question: With Cc1ccc(N2CCC(C(=O)N3CCc4nc(N5CCOCC5)[nH]c4-c4cc(Cl)ccc43)CC2)nc1 [Example 59] as the compound, how does the Ki read?
Answer: 0.794 nM

Question: How did the Ki turn out when Cc1cccc(N2CCC(C(=O)N3CCc4nc(N5CCOCC5)[nH]c4-c4ccccc43)CC2)n1 [Example 60] was run?
Answer: 12.9 nM

Question: CCc1nc2c([nH]1)-c1cc(C)ccc1N(C(=O)C1CCN(c3cccc(C)n3)CC1)CC2 [Example 61] was tested. Which Ki did it give?
Answer: 7.41 nM

Question: Which Ki does the source give for CCCc1nc2c([nH]1)-c1cc(C)ccc1N(C(=O)C1CCN(c3cccc(C)n3)CC1)CC2 [Example 62] here?
Answer: 7.41 nM

Question: Which Ki does the source give for Cc1ccc2c(c1)-c1[nH]c(N3CCOCC3)nc1CCN2C(=O)C1CCN(c2cccc(C)n2)CC1 [Example 63] here?
Answer: 1.86 nM

Question: With COc1cccc(N2CCC(C(=O)N3CCc4nc(N5CCOCC5)[nH]c4-c4cc(C)ccc43)CC2)n1 [Example 64] as the compound, how does the Ki read?
Answer: 6.31 nM

Question: Cc1ccc2c(c1)-c1[nH]c(C3CCOCC3)nc1CCN2C(=O)C1CCN(c2cccc(C)n2)CC1 [Example 65] was tested. Which Ki did it give?
Answer: 7.59 nM

Question: With COc1cccc(N2CCC(C(=O)N3CCc4nc(C5CCOCC5)[nH]c4-c4cc(C)ccc43)CC2)n1 [Example 66] as the compound, how does the Ki read?
Answer: 30.9 nM

Question: How did the Ki turn out when Cc1cccc(N2CCC(C(=O)N3CCc4nc(N5CCOCC5)[nH]c4-c4cc(Cl)ccc43)CC2)n1 [Example 67] was run?
Answer: 1.35 nM

Question: COc1cccc(N2CCC(C(=O)N3CCc4nc(N5CCOCC5)[nH]c4-c4cc(Cl)ccc43)CC2)n1 [Example 68] was tested. Which Ki did it give?
Answer: 1.91 nM

Question: Cc1ccc2c(c1)-c1[nH]c(N3CCOCC3)nc1CCN2C(=O)C1CCN(c2cnccc2C)CC1 [Example 69] was tested. Which Ki did it give?
Answer: 13.8 nM

Question: Which Ki does the source give for Cc1cncc(N2CCC(C(=O)N3CCc4nc(N5CCOCC5)[nH]c4-c4cc(C)ccc43)CC2)c1 [Example 70] here?
Answer: 6.61 nM

Question: Which Ki does the source give for Cc1ccc2c(c1)-c1[nH]c(N3CCOCC3)nc1CCN2C(=O)C1CCN(c2cccnc2C)CC1 [Example 71] here?
Answer: 16.6 nM

Question: For Cc1nc2c([nH]1)-c1cc(Cl)ccc1N(C(=O)C1CCN(c3ccccc3)CC1)CC2 [Example 72], which Ki is on record?
Answer: 9.12 nM

Question: With CCc1nc2c([nH]1)-c1cc(Cl)ccc1N(C(=O)C1CCN(c3ccccc3)CC1)CC2 [Example 73] as the compound, how does the Ki read?
Answer: 6.17 nM

Question: How did the Ki turn out when CCCc1nc2c([nH]1)-c1cc(Cl)ccc1N(C(=O)C1CCN(c3ccccc3)CC1)CC2 [Example 74] was run?
Answer: 15.1 nM

Question: How did the Ki turn out when O=C(C1CCN(c2ccccc2)CC1)N1CCc2nc(C3CC3)[nH]c2-c2cc(Cl)ccc21 [Example 75] was run?
Answer: 11 nM

Question: O=C(C1CCN(c2ccccc2)CC1)N1CCc2nc(C3CCCCC3)[nH]c2-c2cc(Cl)ccc21 [Example 76] was tested. Which Ki did it give?
Answer: 28.2 nM

Question: Which Ki does the source give for O=C(C1CCN(c2ccccc2)CC1)N1CCc2nc(N3CCCCC3)[nH]c2-c2cc(Cl)ccc21 [Example 77] here?
Answer: 18.2 nM

Question: How did the Ki turn out when CN1CCN(c2nc3c([nH]2)-c2cc(Cl)ccc2N(C(=O)C2CCN(c4ccccc4)CC2)CC3)CC1 [Example 78] was run?
Answer: 8.71 nM

Question: Which Ki does the source give for O=C(C1CCN(c2ccccc2)CC1)N1CCc2nc(-c3ccccc3)[nH]c2-c2cc(Cl)ccc21 [Example 79] here?
Answer: 77.6 nM

Question: O=C(C1CCN(c2ccccc2)CC1)N1CCc2nc(-c3ccccc3F)[nH]c2-c2cc(Cl)ccc21 [Example 80] was tested. Which Ki did it give?
Answer: 81.3 nM

Question: Which Ki does the source give for O=C(C1CCN(c2ccccc2)CC1)N1CCc2nc(-c3cccc(F)c3)[nH]c2-c2cc(Cl)ccc21 [Example 81] here?
Answer: 93.3 nM

Question: O=C(C1CCN(c2ccccc2)CC1)N1CCc2nc(Cc3ccccc3)[nH]c2-c2cc(Cl)ccc21 [Example 82] was tested. Which Ki did it give?
Answer: 42.7 nM

Question: Cc1nc2c([nH]1)-c1cc(Cl)ccc1N(C(=O)C1CCN(c3ccccc3F)CC1)CC2 [Example 83] was tested. Which Ki did it give?
Answer: 26.3 nM

Question: How did the Ki turn out when Cc1nc2c([nH]1)-c1cc(Cl)ccc1N(C(=O)C1CCN(c3cccc(F)c3)CC1)CC2 [Example 84] was run?
Answer: 38 nM

Question: Which Ki does the source give for Cc1nc2c([nH]1)-c1cc(Cl)ccc1N(C(=O)C1CCN(c3ccc(F)cc3)CC1)CC2 [Example 85] here?
Answer: 11 nM

Question: With Cc1nc2c([nH]1)-c1cc(Cl)ccc1N(C(=O)C1CCN(c3ccccc3Cl)CC1)CC2 [Example 86] as the compound, how does the Ki read?
Answer: 31.6 nM

Question: How did the Ki turn out when Cc1nc2c([nH]1)-c1cc(Cl)ccc1N(C(=O)C1CCN(c3cccc(Cl)c3)CC1)CC2 [Example 87] was run?
Answer: 69.2 nM

Question: Cc1nc2c([nH]1)-c1cc(Cl)ccc1N(C(=O)C1CCN(c3ccc(Cl)cc3)CC1)CC2 [Example 88] was tested. Which Ki did it give?
Answer: 6.17 nM

Question: For Cc1nc2c([nH]1)-c1cc(Cl)ccc1N(C(=O)C1CCN(c3ccccc3C)CC1)CC2 [Example 89], which Ki is on record?
Answer: 25.7 nM

Question: For Cc1cccc(N2CCC(C(=O)N3CCc4nc(C)[nH]c4-c4cc(Cl)ccc43)CC2)c1 [Example 90], which Ki is on record?
Answer: 9.55 nM

Question: For Cc1ccc(N2CCC(C(=O)N3CCc4nc(C)[nH]c4-c4cc(Cl)ccc43)CC2)cc1 [Example 91], which Ki is on record?
Answer: 1.26 nM

Question: How did the Ki turn out when COc1ccccc1N1CCC(C(=O)N2CCc3nc(C)[nH]c3-c3cc(Cl)ccc32)CC1 [Example 92] was run?
Answer: 22.9 nM

Question: COc1cccc(N2CCC(C(=O)N3CCc4nc(C)[nH]c4-c4cc(Cl)ccc43)CC2)c1 [Example 93] was tested. Which Ki did it give?
Answer: 2.51 nM

Question: For COc1ccc(N2CCC(C(=O)N3CCc4nc(C)[nH]c4-c4cc(Cl)ccc43)CC2)cc1 [Example 94], which Ki is on record?
Answer: 16.2 nM

Question: Which Ki does the source give for CCc1ccc(N2CCC(C(=O)N3CCc4nc(C)[nH]c4-c4cc(Cl)ccc43)CC2)cc1 [Example 95] here?
Answer: 3.16 nM

Question: CCCc1ccc(N2CCC(C(=O)N3CCc4nc(C)[nH]c4-c4cc(Cl)ccc43)CC2)cc1 [Example 96] was tested. Which Ki did it give?
Answer: 13.5 nM

Question: Cc1nc2c([nH]1)-c1cc(Cl)ccc1N(C(=O)C1CCN(c3ccc(C(C)C)cc3)CC1)CC2 [Example 97] was tested. Which Ki did it give?
Answer: 22.4 nM

Question: With Cn1ncc2c1Nc1ccccc1N(C(=O)C1CCN(c3ncccn3)CC1)C2 [Example 98] as the compound, how does the Ki read?
Answer: 141 nM

Question: O=C(C1CCN(c2nccc(C(F)(F)F)n2)CC1)N1Cc2cnn(C3CCCCC3)c2Nc2ccccc21 [Example 99] was tested. Which Ki did it give?
Answer: 35.5 nM

Question: For Cn1ncc2c1Nc1cc(F)ccc1N(C(=O)C1CCN(c3ncccn3)CC1)C2 [Example 100], which Ki is on record?
Answer: 145 nM

Question: With CCn1ncc2c1Nc1cc(F)ccc1N(C(=O)C1CCN(c3nccc(C(F)(F)F)n3)CC1)C2 [Example 101, (3-Ethyl-6-fluoro-4,10-dihydro-3H-2,3,4,9-tetraaza-benzo[f]azulen-9-yl)-[1-(4-trifluoromethyl-pyrimidin-2-yl)-piperidin-4-yl]-methanone] as the compound, how does the Ki read?
Answer: 575 nM

Question: How did the Ki turn out when Cc1ccc2c(c1)Nc1c(cnn1C)CN2C(=O)C1CCN(c2ncccn2)CC1 [Example 102] was run?
Answer: 151 nM

Question: How did the Ki turn out when Cn1ncc2c1Nc1cc(Cl)ccc1N(C(=O)C1CCN(c3ncccn3)CC1)C2 [Example 103, (6-Chloro-3-methyl-4,10-dihydro-3H-2,3,4,9-tetraaza-benzo[f]azulen-9-yl)-(1-pyrimidin-2-yl-piperidin-4-yl)-methanone] was run?
Answer: 75.9 nM

Question: Which Ki does the source give for O=C(C1CCN(c2ncccn2)CC1)N1Cc2cnn(-c3ccccc3)c2Nc2cc(Cl)ccc21 [Example 104] here?
Answer: 14.1 nM

Question: With CCc1cnc(N2CCC(C(=O)N3Cc4cnn(-c5ccccc5)c4Nc4cc(Cl)ccc43)CC2)nc1 [Example 105] as the compound, how does the Ki read?
Answer: 13.8 nM

Question: Which Ki does the source give for Cn1ncc2c1Nc1ccccc1N(C(=O)C1CCN(c3ccccn3)CC1)C2 [Example 106] here?
Answer: 12.6 nM

Question: How did the Ki turn out when CCn1ncc2c1Nc1cc(F)ccc1N(C(=O)C1CCN(c3ccc(C)cn3)CC1)C2 [Example 107] was run?
Answer: 1.91 nM

Question: For Cc1ccc(N2CCC(C(=O)N3Cc4cnn(C(C)(C)C)c4Nc4cc(F)ccc43)CC2)nc1 [Example 108], which Ki is on record?
Answer: 5.37 nM

Question: For Cc1ccc2c(c1)Nc1c(cnn1C)CN2C(=O)C1CCN(c2ccccn2)CC1 [Example 109], which Ki is on record?
Answer: 12.9 nM

Question: With Cc1ccc2c(c1)Nc1c(cnn1C)CN2C(=O)C1CCN(c2ncccc2C)CC1 [Example 110] as the compound, how does the Ki read?
Answer: 4.57 nM

Question: Cc1ccnc(N2CCC(C(=O)N3Cc4cnn(C)c4Nc4cc(C)ccc43)CC2)c1 [Example 111] was tested. Which Ki did it give?
Answer: 2.4 nM

Question: Cc1ccc(N2CCC(C(=O)N3Cc4cnn(C)c4Nc4cc(C)ccc43)CC2)nc1 [Example 112] was tested. Which Ki did it give?
Answer: 2.82 nM

Question: COc1cccnc1N1CCC(C(=O)N2Cc3cnn(C)c3Nc3cc(C)ccc32)CC1 [Example 113] was tested. Which Ki did it give?
Answer: 30.2 nM

Question: For Cc1ccc(N2CCC(C(=O)N3Cc4cnn(Cc5ccccc5)c4Nc4cc(C)ccc43)CC2)nc1 [Example 114], which Ki is on record?
Answer: 20 nM
